The structures appear in SMILES notation. ± gives the expanded uncertainty stated by the source.

For this data set the following is noted: Crystal; visual observation.

`c1ccc2cc3ccccc3cc2c1` [anthracene]: the Normal melting temperature worked out at 215 ± 1 °C.

(Values after the NIST ThermoML archive (doi:10.1021/je1001945).)
